Data taken from US8304447B2, “2-acylaminopropoanol-type glucosylceramide synthase inhibitors” (Genzyme Corporation, priority 2007, dated 2012).

Test system: GM3
Assay: GM3 Elisa assay
Type: cell-based
Details: Table 3 (IC 50 Values); B16-FO cells; read-out: IC50_uM_Mean
How it was run: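 Murine B16-FO melanoma cells attached 6 h on collagen, then exposed to compounds for 2 days at 37 °C. After formaldehyde fixation, cell-surface GM3 (NeuAc) was detected by anti-GM3 IgM and peroxidase anti-mouse IgM with Quantablu fluorescence (Ex 325/Em 420).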

| Structure (SMILES) | IC50 |
| --- | --- |
| CCCCCCCCCCCCCCCC(=O)N[C@H](CNC(C)C)[C@H](O)c1ccc2c(c1)OCCO2 [Compound 680] | ≤ 100 nM |
| CCCCCCCCCCCCCCCC(=O)N[C@H](CNC1CCCC1)[C@H](O)c1ccc2c(c1)OCCO2 [Compound 681] | 1000 to 3000 nM |
| CCCCCCCCCCCCCCCC(=O)N[C@H](CN(C)Cc1ccccc1)[C@H](O)c1ccc2c(c1)OCCO2 [Compound 682] | 3000 to 10000 nM |
| CCCCCCCCCCCCCCCC(=O)N[C@H](CN(C)Cc1ccco1)[C@H](O)c1ccc2c(c1)OCCO2 [Compound 683] | 3000 to 10000 nM |
| CCCCCCCCCCCCCC(=O)N[C@H](CN(C)C(C)C)[C@H](O)c1ccc2c(c1)OCCO2 [Compound 684] | 100 to 1000 nM |
| CCCCCCCCCCCCCCCC(=O)N[C@H](CN(C)C1CCCC1)[C@@H](O)c1ccc2c(c1)OCCO2 [Compound 685] | 3000 to 10000 nM |
| CCCCCCCC(=O)N[C@H](CCN1CCOCC1)[C@H](O)c1ccc2c(c1)OCCO2 [Compound 686] | 3000 to 10000 nM |
| CCCCCCCC(=O)N[C@H](CCN1CCCC1)[C@H](O)c1ccc2c(c1)OCCO2 [Compound 687] | 3000 to 10000 nM |
| COc1ccc(C(=O)CCCCCC(=O)N[C@H](CCN2CCCC2)[C@H](O)c2ccc3c(c2)OCCO3)cc1 [Compound 688] | 3000 to 10000 nM |
| O=C(CCC(=O)N[C@H](CN1CCCC1)[C@H](O)c1ccc2c(c1)OCCO2)NC1CCCCC1 [Compound 689] | 3000 to 10000 nM |
| CC(C)Oc1ccc(C(=O)NCCCCCC(=O)N[C@H](CN2CCCC2)[C@H](O)c2ccc3c(c2)OCCO3)cc1 [Compound 690] | ≤ 100 nM |
| O=C(CCCNC(=O)NC1CCCCC1)N[C@H](CN1CCCC1)[C@H](O)c1ccc2c(c1)OCCO2 [Compound 691] | 3000 to 10000 nM |
| O=C(CCOc1ccnc2ccccc12)N[C@H](CN1CCCC1)[C@H](O)c1ccc2c(c1)OCCO2 [Compound 692] | 100 to 1000 nM |
| COc1ccc(C(=O)CCCCCC(=O)N[C@H](CN2CCCC2)[C@H](O)c2ccc(-c3ccccc3)cc2)cc1 [Compound 693] | ≤ 100 nM |
| COc1ccc(C(=O)CCCCC(=O)N[C@H](CN2CCCC2)[C@H](O)c2ccc(-c3ccccc3)cc2)cc1 [Compound 694] | 100 to 1000 nM |
| COc1ccc(OCCC(=O)N[C@H](CN2CCCC2)[C@H](O)c2ccc(-c3ccccc3)cc2)cc1 [Compound 695] | 100 to 1000 nM |
| COc1ccc(C(=O)CCCC(=O)N[C@H](CN2CCCC2)[C@H](O)c2ccc(-c3ccccc3)cc2)cc1 [Compound 696] | 1000 to 3000 nM |
| CCCCCCCC(=O)N[C@H](CN1CCCC1)[C@H](O)c1ccc(-c2ccccc2)cc1 [Compound 697] | 100 to 1000 nM |
| COc1ccc(C(=O)CCCCC(=O)N[C@H](CN2CCCC2)[C@H](O)c2ccccc2OC)cc1 [Compound 698] | 100 to 1000 nM |
| COc1ccc(C(=O)CCCCCC(=O)N[C@H](CN2CCCC2)[C@H](O)c2ccccc2OC)cc1 [Compound 699] | ≤ 100 nM |
| COc1ccc(OCCC(=O)N[C@H](CN2CCCC2)[C@H](O)c2ccccc2OC)cc1 [Compound 700] | 100 to 1000 nM |

| Structure (SMILES) | IC50 |
| --- | --- |
| COc1ccc(C(=O)CCCC(=O)N[C@H](CN2CCCC2)[C@H](O)c2ccccc2OC)cc1 [Compound 701] | 1000 to 3000 nM |
| O=C(Cc1ccc(OC(F)(F)F)cc1)N[C@H](CN1CCCC1)[C@H](O)c1ccc(OCc2ccccc2)cc1 [Compound 702] | ≤ 100 nM |
| CCCCCCCC(=O)N[C@H](CN1CCCC1)[C@H](O)c1ccc(OCc2ccccc2)cc1 [Compound 703] | ≤ 100 nM |
| COc1ccc(C(=O)CCCCCC(=O)N[C@H](CN2CCCC2)[C@H](O)c2ccc(OCc3ccccc3)cc2)cc1 [Compound 704] | ≤ 100 nM |
| COc1ccc(OCCC(=O)N[C@H](CN2CCCC2)[C@H](O)c2ccc(OCc3ccccc3)cc2)cc1 [Compound 705] | ≤ 100 nM |
| COc1ccc(C(=O)CCCCC(=O)N[C@H](CN2CCCC2)[C@H](O)c2ccc(OCc3ccccc3)cc2)cc1 [Compound 706] | ≤ 100 nM |
| COc1ccc(C(=O)CCCCCC(=O)N[C@H](CN2CCCC2)[C@H](O)c2ccc(OC)c(Cl)c2)cc1 [Compound 707] | ≤ 100 nM |
| CCCCCCCCC(=O)N[C@H](CN1CCCC1)[C@H](O)c1ccc(OC)c(Cl)c1 [Compound 708] | ≤ 100 nM |
| COc1ccc(C(=O)CCCCC(=O)N[C@H](CN2CCCC2)[C@H](O)c2ccc(OC)c(Cl)c2)cc1 [Compound 709] | ≤ 100 nM |
| COc1ccc([C@@H](O)[C@@H](CN2CCCC2)NC(=O)Cc2ccc(OC(F)(F)F)cc2)cc1Cl [Compound 710] | ≤ 100 nM |
| COc1ccc(OCCC(=O)N[C@H](CN2CCCC2)[C@H](O)c2ccc(OC)c(Cl)c2)cc1 [Compound 711] | ≤ 100 nM |
| COc1ccc(OCCC(=O)N[C@H](CN2CCCC2)[C@H](O)c2ccc(O)cc2)cc1 [Compound 712] | 100 to 1000 nM |
| COCCOCCOc1ccc([C@@H](O)[C@@H](CN2CCCC2)NC(=O)CCOc2ccc(OC)cc2)cc1 [Compound 713] | 100 to 1000 nM |
| COCCOc1ccc([C@@H](O)[C@@H](CN2CCCC2)NC(=O)CCOc2ccc(OC)cc2)cc1 [Compound 714] | 3000 to 10000 nM |
| COc1ccc(OCCC(=O)N(CC(=O)c2ccc(OC)cc2)[C@H](CN2CCCC2)[C@H](O)c2ccc(O)cc2)cc1 [Compound 715] | 3000 to 10000 nM |
| COc1ccc(OCCC(=O)N(Cc2ccccn2)[C@H](CN2CCCC2)[C@H](O)c2ccc(O)cc2)cc1 [Compound 716] | 3000 to 10000 nM |
| COc1ccc(OCCC(=O)N(Cc2nc3ccccc3s2)[C@H](CN2CCCC2)[C@H](O)c2ccc(O)cc2)cc1 [Compound 717] | 3000 to 10000 nM |
| COc1ccc(OCCC(=O)N(Cc2cccc(-c3noc(C)n3)c2)[C@H](CN2CCCC2)[C@H](O)c2ccc(O)cc2)cc1 [Compound 718] | 3000 to 10000 nM |
| COc1ccc(OCCC(=O)N(Cc2cccc3ccncc23)[C@H](CN2CCCC2)[C@H](O)c2ccc(O)cc2)cc1 [Compound 719] | 3000 to 10000 nM |
| COc1ccc(OCCC(=O)N(Cc2ccc(-c3noc(C)n3)cc2)[C@H](CN2CCCC2)[C@H](O)c2ccc(O)cc2)cc1 [Compound 720] | 3000 to 10000 nM |
| COc1ccc(OCCC(=O)N(Cc2ccc(-c3nc(C)no3)cc2)[C@H](CN2CCCC2)[C@H](O)c2ccc(O)cc2)cc1 [Compound 721] | 3000 to 10000 nM |

| Structure (SMILES) | IC50 |
| --- | --- |
| COc1ccc(OCCC(=O)N[C@H](CN2CCCC2)[C@H](O)c2ccc(OCCOc3cccc(C)c3)cc2)cc1 [Compound 722] | ≤ 100 nM |
| COc1ccc(OCCC(=O)N[C@H](CN2CCCC2)[C@H](O)c2ccc(OCCOc3ccc(Cl)cc3)cc2)cc1 [Compound 723] | ≤ 100 nM |
| CC(=O)c1ccc(OCCCC(=O)N[C@H](CN2CCCC2)[C@H](O)c2ccc(OC(C)C)cc2)cc1 [Compound 724] | 100 to 1000 nM |
| CC(C)Oc1ccc([C@@H](O)[C@@H](CN2CCC(F)C2)NC(=O)CCOc2ccc(Cl)cc2)cc1 (stereo partly shown) [Compound 725] | 100 to 1000 nM |
| CC(C)Oc1ccc([C@@H](O)[C@@H](CN2CCC(F)C2)NC(=O)NCc2ccc(Cl)cc2)cc1 (stereo partly shown) [Compound 726] | 100 to 1000 nM |
| CCCCCCOc1ccc([C@@H](O)[C@@H](CN2CCCC2)NC(=O)CCCOc2ccc(C(C)=O)cc2)cc1 [Compound 727] | ≤ 100 nM |
| CCCCCCOc1ccc([C@@H](O)[C@@H](CN2CC[C@H](O)C2)NC(=O)CCCOc2ccc(OC)cc2)cc1 [Compound 728] | ≤ 100 nM |
| CCCCCCOc1ccc([C@@H](O)[C@@H](CN2CC[C@H](O)C2)NC(=O)CCOc2ccc(Cl)cc2)cc1 [Compound 729] | ≤ 100 nM |
| CCCCCCOc1ccc([C@@H](O)[C@@H](CN2CC[C@@H](F)C2)NC(=O)CCCOc2ccc(OC)cc2)cc1 [Compound 730] | ≤ 100 nM |
| CCCCCCOc1ccc([C@@H](O)[C@@H](CN2CC[C@@H](F)C2)NC(=O)CCOc2ccc(Cl)cc2)cc1 [Compound 731] | ≤ 100 nM |
| COc1ccc(C(=O)CCCC(=O)N[C@H](CN2CC[C@H](O)C2)[C@H](O)c2ccc(OC(C)C)cc2)cc1 [Compound 732] | 100 to 1000 nM |
| COc1ccc(OCCCC(=O)N[C@H](CN2CC[C@H](O)C2)[C@H](O)c2ccc(OC(C)C)cc2)cc1 [Compound 733] | ≤ 100 nM |
| COc1ccc(OCCCC(=O)N[C@H](CN2CC[C@@H](F)C2)[C@H](O)c2ccc(OCCCCF)cc2)cc1 [Compound 734] | ≤ 100 nM |
| O=C(NCc1ccc(Cl)cc1)N[C@H](CN1CC[C@@H](F)C1)[C@H](O)c1ccc(OCCCCF)cc1 [Compound 735] | ≤ 100 nM |
| COc1ccc(C(=O)CCCC(=O)N[C@H](CN2CC[C@@H](F)C2)[C@H](O)c2ccc(OCCCCF)cc2)cc1 [Compound 736] | ≤ 100 nM |
| COCCOc1ccc(C(=O)CCCC(=O)N[C@H](CN2CC[C@H](O)C2)[C@H](O)c2ccc(OC(C)C)cc2)cc1 [Compound 737] | 100 to 1000 nM |
| Cc1ccc(OCCC(=O)N[C@H](CN2CC[C@H](O)C2)[C@H](O)c2ccc(OC(C)C)cc2)cc1 [Compound 738] | ≤ 100 nM |
| Cc1ccc(OCCC(=O)N[C@H](CN2CC[C@@H](F)C2)[C@H](O)c2ccc(OCCCCF)cc2)cc1 [Compound 739] | ≤ 100 nM |
| COCCOc1ccc(C(=O)CCCCC(=O)N[C@H](CN2CC[C@H](O)C2)[C@H](O)c2ccc(OC(C)C)cc2)cc1 [Compound 740] | ≤ 100 nM |
